Measured values reported in patent EP2644601A1, “Compounds with matrix-metalloproteinase inhibitory activity and imaging agents thereof” (Westfälische Wilhelms-Universität Münster, priority 2012, dated 2013).

Tests used:
Format in all cases: biochemical
[1] = molecular target: T1, MMP-2 (Homo sapiens, UniProt P08253); experiment: MMP compound screening with Fluorimetric SensoLyte 390 Generic MMP Activity Kit, recombinant MMP-2
T1 sequence (P08253 110-660): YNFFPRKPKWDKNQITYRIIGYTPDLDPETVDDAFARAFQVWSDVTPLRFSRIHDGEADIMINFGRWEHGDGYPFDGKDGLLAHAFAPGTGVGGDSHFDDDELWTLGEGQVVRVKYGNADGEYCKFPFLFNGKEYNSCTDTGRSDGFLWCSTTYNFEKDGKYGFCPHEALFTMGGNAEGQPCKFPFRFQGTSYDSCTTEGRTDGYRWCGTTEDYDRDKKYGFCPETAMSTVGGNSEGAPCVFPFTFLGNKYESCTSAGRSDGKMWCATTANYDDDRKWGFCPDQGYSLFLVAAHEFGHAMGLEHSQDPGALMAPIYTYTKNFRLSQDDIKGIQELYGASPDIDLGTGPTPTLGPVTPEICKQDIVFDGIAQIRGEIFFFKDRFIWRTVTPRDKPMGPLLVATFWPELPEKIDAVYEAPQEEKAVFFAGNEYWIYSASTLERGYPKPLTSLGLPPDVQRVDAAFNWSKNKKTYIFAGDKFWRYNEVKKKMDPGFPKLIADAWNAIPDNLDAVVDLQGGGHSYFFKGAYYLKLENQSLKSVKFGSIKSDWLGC
Method: (§1) The activities were determined using Fluorimetric SensoLyte® 390 Generic MMP Activity Kit from Anaspec (cat # 72202). This assay kit can detect the activity of several MMPs such as MMP-1, 2, 7, 8, 9, 13, 14,15,16 and 24.
(§2) For screening MMP compounds, activated 2 nM of recombinant MMP-2, 8, 9 or 13 are pre-incubated with MMP compound (inhibitor) for 30 min at 37°C. The substrate is added and the inhibition of MMP activity is expressed as % of total activity (without the inhibitor incubation).

[2] = molecular target: MMP-8 (Homo sapiens, UniProt P22894); experiment: MMP compound screening with Fluorimetric SensoLyte 390 Generic MMP Activity Kit, recombinant MMP-8
Chain of MMP-8 (P22894 101-467, species assumed): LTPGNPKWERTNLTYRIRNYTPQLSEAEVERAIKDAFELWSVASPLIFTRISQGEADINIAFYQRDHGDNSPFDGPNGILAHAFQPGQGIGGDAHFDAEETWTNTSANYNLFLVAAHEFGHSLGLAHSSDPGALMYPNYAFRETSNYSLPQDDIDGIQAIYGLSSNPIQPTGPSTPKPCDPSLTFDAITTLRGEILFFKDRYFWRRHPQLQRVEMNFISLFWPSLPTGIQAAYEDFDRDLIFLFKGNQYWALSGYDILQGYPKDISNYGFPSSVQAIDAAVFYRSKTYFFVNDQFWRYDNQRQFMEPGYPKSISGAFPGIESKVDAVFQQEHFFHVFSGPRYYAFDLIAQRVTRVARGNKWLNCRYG
Method: as §1, §2

[3] = molecular target: MMP-9 (Homo sapiens, UniProt P14780); experiment: MMP compound screening with Fluorimetric SensoLyte 390 Generic MMP Activity Kit, recombinant MMP-9
Chain of MMP-9 (P14780 107-707 limits assumed, species assumed): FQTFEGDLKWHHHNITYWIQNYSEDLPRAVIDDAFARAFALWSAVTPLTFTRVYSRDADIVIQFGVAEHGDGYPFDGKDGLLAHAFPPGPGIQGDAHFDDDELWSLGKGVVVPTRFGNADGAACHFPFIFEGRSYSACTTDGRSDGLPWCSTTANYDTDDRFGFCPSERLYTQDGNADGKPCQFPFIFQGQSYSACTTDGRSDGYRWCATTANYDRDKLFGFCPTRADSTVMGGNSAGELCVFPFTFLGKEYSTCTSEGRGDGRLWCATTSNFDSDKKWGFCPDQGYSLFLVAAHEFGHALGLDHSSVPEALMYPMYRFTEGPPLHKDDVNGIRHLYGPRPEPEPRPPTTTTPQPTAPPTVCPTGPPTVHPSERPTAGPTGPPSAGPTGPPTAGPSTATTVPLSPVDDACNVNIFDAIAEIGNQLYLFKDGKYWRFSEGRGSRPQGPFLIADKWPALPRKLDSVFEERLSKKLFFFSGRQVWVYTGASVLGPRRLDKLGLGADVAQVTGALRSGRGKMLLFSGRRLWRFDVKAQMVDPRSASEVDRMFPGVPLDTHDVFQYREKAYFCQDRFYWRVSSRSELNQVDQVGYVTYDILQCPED
Method: as §1, §2

[4] = molecular target: MMP13 (Homo sapiens, UniProt P45452); experiment: MMP compound screening with Fluorimetric SensoLyte 390 Generic MMP Activity Kit, recombinant MMP-13
Method: as §1, §2

`CCN1/C(=C/C=C/C=C/C2=[N+](CCCCCC(N)=O)c3ccc4c(S(=O)(=O)O)cc(S(=O)(=O)O)cc4c3C2(C)C)C(C)(C)c2c1ccc1c(S(=O)(=O)[O-])cc(S(=O)(=O)O)cc21` [Cy5.5] gave an inhibition at 0.1 µM ([1]; 0.1uM) of 0%, an inhibition at 1 µM ([1]; 1uM) of 0% and an inhibition at 0.1 µM ([2]; 0.1uM) of 0%. It also gave an inhibition at 1 µM ([2]; 1uM) of 1%, an inhibition at 0.1 µM ([3]; 0.1uM) of 12% and an inhibition at 1 µM ([3]; 1uM) of 17%. It also gave an inhibition at 0.1 µM ([4]; 0.1uM) of 0% and an inhibition at 1 µM ([4]; 1uM) of 7%.
